Values quoted from earlier work in patent publication US20100291025A1, “INDAZOLE INHIBITORS OF TYROSINE KINASE” (AUSPEX PHARMACEUTICALS, INC., priority 2009, published 2010).

Conditions: in vivo

SMILES: Cc1ccc(Nc2nccc(N(C)c3ccc4c(C)n(C)nc4c3)n2)cc1S(N)(=O)=O [Pazopanib, 5-[[4-[(2,3-Dimethyl-2H-indazol-6-yl)(methyl)amino]pyrimidin-2-yl]amino]-2-methylbenzenesulfonamide]
- adverse effects associated with administration: nausea, diarrhea, anorexia, hypertension, fatigue, hair depigmentation, and vomiting
